{"source": "patent US11878063B2", "about": "“Engineered ligands and uses thereof” (Children's Medical Center Corporation, priority 2019, dated 2024)", "assay_type_in_all_cases": "cell-based", "key": {"PTHR2": {"biological_target": "T1, PTHR2 (Homo sapiens, UniProt P49190)", "T1 construct": "expressed in transfected cells", "T1 sequence (P49190 25-550)": "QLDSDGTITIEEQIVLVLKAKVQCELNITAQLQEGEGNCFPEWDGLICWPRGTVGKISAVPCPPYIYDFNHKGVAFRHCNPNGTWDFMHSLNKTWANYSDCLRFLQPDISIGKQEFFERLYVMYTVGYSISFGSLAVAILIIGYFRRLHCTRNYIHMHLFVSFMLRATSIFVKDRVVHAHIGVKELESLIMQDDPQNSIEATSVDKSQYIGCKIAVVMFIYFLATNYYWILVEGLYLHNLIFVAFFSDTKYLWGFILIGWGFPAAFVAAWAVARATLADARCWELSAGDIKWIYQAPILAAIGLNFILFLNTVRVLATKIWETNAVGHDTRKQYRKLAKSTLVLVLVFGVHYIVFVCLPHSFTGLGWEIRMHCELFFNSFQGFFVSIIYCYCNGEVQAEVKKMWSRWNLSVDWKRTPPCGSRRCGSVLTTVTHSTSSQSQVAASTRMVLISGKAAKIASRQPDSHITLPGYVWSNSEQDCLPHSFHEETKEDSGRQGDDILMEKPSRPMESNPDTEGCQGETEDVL", "assay": "cAMP induction in HEK293 cells stably expressing human PTHR2", "conditions": "maximal cAMP response, normalized", "description": "Measurement of cAMP response. These assays were performed as previously described^27. […] Confluent monolayers of cells were pre-incubated with CO2 independent medium containing D-luciferin (0.5 mM) at 37° C. until a stable baseline level of luminescence was established (20 min). Varying concentrations of ligands were then added, and the time course of luminescence response was recorded using BioTek plate reader.\n(§1) Data calculations. Data were processed using Microsoft Excel and GraphPad Prism 6. Data from cAMP dose-response assays were analyzed using a sigmoidal dose-response model with variable slope. Data sets were statistically compared by using Student's t test (two-tailed) assuming unequal variances for the two sets."}, "PTHR16E": {"biological_target": "T2, PTHR16E (Homo sapiens, UniProt Q03431, A83I/D81R/G76A/K80A/K82Q/P78E/R79L/S71Q/S73D/S75E/T74Q)", "T2 construct": "expressed in transfected cells", "T2 sequence (Q03431 27-593 S71Q/S73D/T74Q/S75E/G76A/P78E/R79L/K80A/D81R/K82Q/A83I)": "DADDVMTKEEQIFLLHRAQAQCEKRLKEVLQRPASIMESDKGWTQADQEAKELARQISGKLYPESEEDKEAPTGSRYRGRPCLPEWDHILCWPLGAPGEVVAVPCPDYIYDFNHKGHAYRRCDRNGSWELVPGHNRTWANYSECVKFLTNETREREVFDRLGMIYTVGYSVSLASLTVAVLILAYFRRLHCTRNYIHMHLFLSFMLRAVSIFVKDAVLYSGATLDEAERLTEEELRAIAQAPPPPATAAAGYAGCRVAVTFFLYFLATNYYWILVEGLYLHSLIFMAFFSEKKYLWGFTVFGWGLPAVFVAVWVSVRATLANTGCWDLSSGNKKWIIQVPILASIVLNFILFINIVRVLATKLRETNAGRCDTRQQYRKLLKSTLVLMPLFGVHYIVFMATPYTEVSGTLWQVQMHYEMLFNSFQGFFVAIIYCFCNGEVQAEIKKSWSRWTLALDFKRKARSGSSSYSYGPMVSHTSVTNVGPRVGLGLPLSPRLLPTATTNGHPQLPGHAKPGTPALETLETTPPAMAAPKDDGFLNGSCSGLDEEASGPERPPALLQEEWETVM", "assay": "cAMP induction in HEK293 cells stably expressing PTHR16E (6E/Ubc6e epitope tag in exon 2 segment)", "conditions": "maximal cAMP response, normalized", "description": "Measurement of cAMP response. These assays were performed as previously described^27. Briefly, HEK-293-derived cell lines that stably express the Glosensor cAMP reporter (Promega Corp.)^30 and PTHR1, a PTHR1 variant, or PTHR2 were seeded into white sided 96 well plates (50,000 cells/well) and grown to confluency. Confluent monolayers of cells were pre-incubated with CO2 independent medium containing D-luciferin (0.5 mM) at 37° C. until a stable baseline level of luminescence was established (20 min). Varying concentrations of ligands were then added, and the time course of luminescence response was recorded using BioTek plate reader.\nas §1\nThe portion of PTHR1 encoded by exon 2 is not resolved in structural studies (FIG. 12—Panel d)^13, 14, 17, is not important for ligand binding^18, and in past work has been targeted as a site for receptor modification^18, 19. A construct was generated that encodes a PTHR1 variant in which a 14-residue fragment from exon 2 was replaced with a 14-mer epitope tag from the intracellular protein UBC6e (PTHR16E, FIG. 12—Panel d)^20. A receptor construct in which a pH-sensitive green fluorescent protein variant (GFP) was inserted into the portion of the receptor encoded by exon 2 (PTHR1GFP in FIGS. 17A to 17C)^19. Another version of PTHR1 in which yellow fluorescent protein (YFP) replaces the entire extracellular domain (PTHR1YFPΔECD, FIG. 12—Panel e)^21, was also used."}, "human PTHR1": {"biological_target": "T3, human PTHR1 (Homo sapiens, UniProt Q03431)", "T3 construct": "expressed in transfected cells", "T3 sequence (Q03431 27-593)": "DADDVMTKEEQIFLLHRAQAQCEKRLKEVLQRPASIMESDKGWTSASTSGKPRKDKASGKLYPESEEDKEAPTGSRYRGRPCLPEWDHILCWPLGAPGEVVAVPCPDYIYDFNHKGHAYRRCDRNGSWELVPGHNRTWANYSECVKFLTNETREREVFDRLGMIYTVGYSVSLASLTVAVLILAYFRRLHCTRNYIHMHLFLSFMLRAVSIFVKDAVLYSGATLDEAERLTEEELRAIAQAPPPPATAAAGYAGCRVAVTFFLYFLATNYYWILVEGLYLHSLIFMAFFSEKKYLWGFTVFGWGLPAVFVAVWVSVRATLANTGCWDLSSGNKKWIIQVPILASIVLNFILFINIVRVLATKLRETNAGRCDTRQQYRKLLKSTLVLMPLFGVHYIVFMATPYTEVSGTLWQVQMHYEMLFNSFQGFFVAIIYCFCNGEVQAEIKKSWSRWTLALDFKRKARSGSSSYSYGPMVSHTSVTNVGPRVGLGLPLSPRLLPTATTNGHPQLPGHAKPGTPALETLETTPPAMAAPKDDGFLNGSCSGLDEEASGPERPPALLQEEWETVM", "assay": "β-arrestin2-YFP recruitment in HEK293 cells transiently transfected with human PTHR1 (microscopy)", "conditions": "30 nM PTH(1-34)-TMR; 100 nM conjugate or VHH; 30 min room temperature", "description": "FIGS. 30A-30F: Assessment of β-arrestin recruitment. A HEK293-derived cell line stably expressing a β-arrestin2-YFP fusion^2 was transiently transfected with human PTHR1. […] (red) and the nuclei of all cells were counterstained with DAPI. […] Panels show the same field of view with signal for β-arrestin2-YFP. […] (FIG. 30E) The ligands or VHHs (and concentrations) applied to these cells are VHHPTHR (100 nM). (FIG. 30F) The ligands or VHHs (and concentrations) applied to these cells are Vehicle. Transfected cells were incubated with indicated ligands or VHHs at room temperature for 30 minutes. This solution was aspirated, and the cells were washed twice, fixed with paraformaldehyde, and imaged as described in methods. For each panel the bottom image corresponds to an expanded version of the inset marked by the rectangle in the top image."}}}
{"smiles": "CC[C@H](C)[C@H](NC(=O)[C@H](CCC(=O)O)NC(=O)[C@H](CO)NC(=O)[C@@H](NC(=O)[C@@H](N)CO)C(C)C)C(=O)N[C@@H](CCC(N)=O)C(=O)N[C@@H](CC(C)C)C(=O)N[C@@H](CCSC)C(=O)N[C@@H](Cc1cnc[nH]1)C(=O)N[C@@H](CC(N)=O)C(=O)N[C@@H](CC(C)C)C(=O)NCC(=O)N[C@@H](CCCCN)C(=O)N[C@@H](Cc1cnc[nH]1)C(=O)N[C@@H](CC(C)C)C(=O)N[C@@H](CC(N)=O)C(=O)N[C@@H](CO)C(=O)N[C@@H](CCSC)C(=O)N[C@@H](CCC(=O)O)C(=O)N[C@@H](CCCN=C(N)N)C(=O)N[C@H](C(=O)N[C@@H](CCC(=O)O)C(=O)N[C@@H](Cc1c[nH]c2ccccc12)C(=O)N[C@@H](CC(C)C)C(=O)N[C@@H](CCCN=C(N)N)C(=O)N[C@@H](CCCCN)C(=O)N[C@@H](CCCCN)C(=O)N[C@@H](CC(C)C)C(=O)N[C@@H](CCC(N)=O)C(=O)N[C@@H](CC(=O)O)C(=O)N[C@H](C(=O)N[C@@H](Cc1cnc[nH]1)C(=O)N[C@@H](CC(N)=O)C(=O)N[C@@H](Cc1ccccc1)C(=O)O)C(C)C)C(C)C", "note": "[PTH(1-34)]", "values": [{"measurement": "Max (normalized ± SD), hPTHR2", "setting": "PTHR2", "value": "1 ± 0"}, {"measurement": "Max (normalized ± SD), hPTHR16E", "setting": "PTHR16E", "value": "1 ± 0.0"}, {"measurement": "relocalization of YFP-tagged β-arrestin to puncta", "setting": "human PTHR1", "value": "effectively stimulated"}]}
